Consider one molecule from patent US11186581B2, “2-(1,3-dimethyl-2,6-dioxo-1,2,3,6-tetrahydro-7H-purin-7-yl)-N-(6-(2-hydroxyphenyl)pyridazin-3-yl)acetamide as a Wnt pathway modulator” (Agency for Science, Technology and Research, priority 2017, dated 2021).

The subject of data set [1] is HEK293-STF3A cells. Briefly: STF3A assay (Wnt reporter luciferase). The data set is classed as cell-based. Particulars: Homo sapiens, 24 h, 1 day of treatment, read-out: IC50 activities on STF3A cells. As to the method: HEK293-STF cell line was modified from Human embryonic kidney cell line HEK293 transfected with the STF reporter. HEK293-STF3 A cell line was further modified from HEK293-STF cell line to express Wnt3A. This cell line was used to identify compounds that regulate either early or late signalling components of the Wnt pathway. L-Wnt3 A (ATCC, #CRL-2647) cell line was used for providing Wnt3 A conditioned media. The three cell lines were grown in DMEM (Dulbecco's Modified Eagle Medium) with 10% FBS (fetal bovine serum) incubated in 37° C. with 5% CO2.
2×10^4 HEK293-STF3A cells in 75 μl culture media were seeded in each well of white 96 well plates (Greiner #655098) and incubated overnight at 37° C. 25 μl serially diluted compound was added to the cells to give final concentration of 50 μM to 1.5 nM. After 1 day of treatment, 100 μl of Steady-Glo® Luciferase Assay reagent (#E2520, Promega) was added to each well and incubated for 10 minutes at room temperature. Luminescence was measured using Tecan Safire2® plate reader.

The nature of data set [2]: Clinical observations after intravenous and oral dose administration. The data set is classed as in vivo, male BALB/c mice. To be noted: after IV 1 mg/kg and PO 5 mg/kg single dose. On the procedure:
A group of eighteen male mice were divided in to two groups as Group 1 and Group 2 with nine mice in each group. Animals in Group 1 were administered intravenously with Compound 1 solution formulation in 7.5% NMP, 5% Solutol HS-15 and 87.5% normal Saline at a dose of 1 mg/kg. Animals in Group 2 were administered orally with Compound 1 solution formulation in 7.5% NMP, 5% Solutol HS and 87.5% normal Saline at a dose of 5 mg/kg.

By IC50 is commonly meant the concentration at which inhibition is half-maximal.

In the case of `Cn1c(=O)c2c(ncn2CC(=O)Nc2ccc(-c3ccccc3O)nn2)n(C)c1=O` [Compound 1, 2-(1,3-dimethyl-2,6-dioxo-1,2,3,6-tetrahydro-7H-purin-7-yl)-N-(6-(2-hydroxyphenyl)pyridazin-3-yl)acetamide], in data set [1], the half-inhibitory concentration (IC50) is 9 nM. Also, in data set [2], the Clinical signs entry is “normal and without any clinical signs”.
